{"source": "patent US20140371158A1", "about": "“BEAUVERICIN COMPOSITIONS AND METHODS THEREOF FOR INHIBITING THE HSP90 CHAPERONE PATHWAY” (Georgia Regents University, priority 2013, published 2014)", "key": {"[1]": {"tested_on": "Hsp90 client proteins in Hs578T cells", "assay": "Western blot of Hsp90 client proteins, Hs578T", "format": "cell-based", "settings": "3 μM, 48 h", "procedure": "(§1) Breast cancer cell lines Hs578T and MDA-MB-453 at 40% confluence in 6-well plates (Corning #3516) were cultured for 24 h and then treated with various concentrations of beauvericin. Cells were harvested at indicated time and cell lysates were made. 15 μg of protein lysate were analyzed by Western blotting using specific antibodies for the indicated proteins.\n(§2) Cell lysates prepared in Example 5 were analyzed for markers for heat shock response using western blot. These include overexpression of Hsp70, Hsp27, Hsp40 and HOP."}, "[2]": {"settings": "Sigma-Aldrich product B7510, powder; cited from earlier work"}, "[3]": {"tested_on": "MDA-MB-453 breast cancer cells", "assay": "Cytotoxicity assay, MDA-MB-453", "format": "cell-based", "settings": "0-10 μM, 24, 48, 72 h, FIG. 6B"}, "[4]": {"tested_on": "Hsp90 client proteins in MDA-MB-453 cells", "assay": "Western blot of Hsp90 client proteins, MDA-MB-453", "format": "cell-based", "settings": "3 μM, 48 h", "procedure": "as §1, §2"}, "[5]": {"tested_on": "HeLa-PRB cells", "assay": "Immunocytochemistry and fluorescence microscopy, nucleocytoplasmic trafficking of steroid receptors", "format": "cell-based", "procedure": "HeLa-PRB cells were grown in 24-well plates (Corning #3337) on micro-cover glasses (Electron Microscopy Sciences) to about 50% confluence in MEM, 1× (Cellgro #10-010-CV) medium supplemented with 10% fetal bovine serum. Cells were treated with 3 μM beauvericin (or DMSO control) for 24 h. Cells were fixed with 0.1 M PIPES, pH 6.95, 1 mM EGTA, pH 8.0, 3 mM MgSO4, 3% paraformaldehyde, permeabilized with 0.1% triton X-100, and blocked with 10% fetal bovine serum with 5% glycerol and stored at 4° C. Primary antibodies against PRB, GR and Hsp90 and secondary antibodies were prepared in the blocking buffer. Coverslips were washed and mounted on slides with ProLong Gold anti-fade reagent with 4′,6-diamidino-2-phenylindole (Invitrogen). Cells were imaged using a Zeiss Imager M1 microscope. Deconvolution of Z-stack images was done using an inverse filter algorithm with auto-linear normalization."}, "[6]": {"tested_on": "PRA complexes", "assay": "PR reconstitution assay in tubes, composition of protein complexes by SDS-PAGE", "format": "biochemical, rabbit", "settings": "FIG. 3", "procedure": "(§3) Purified PR was adsorbed onto PR22 antibody-protein A-sepharose resin beads and was assembled into complexes as described previously (Kosano, et al., J Biol Chem, 273:32973-9 (1998)). Briefly, about 0.05 μM PR was incubated with 100 μl of RRL. After incubation for 30 min at 30° C., 0.1 μM [^3H]-progesterone (American Radiolabeled Chemicals, Inc #ART 0063) was added. Samples were incubated on ice for 3 h at 4° C. Complexes were then washed three times with 1 ml reaction buffer (20 mM Tris/HCl, pH 7.5, 5 mM MgCl2, 2 mM DTT, 0.01% NP-40, 50 mM KCl and 5 mM ATP) and assessed for bound progesterone by liquid scintillation using PerkinElmer Microbeta plate reader, and for composition of protein complexes by SDS-PAGE (10% gel) and Coomassie blue staining."}, "[7]": {"tested_on": "Hsp90 chaperone (refolding of PRA in RRL)", "assay": "Progesterone receptor (PR) reconstitution assay in rabbit reticulocyte lysate, recovery of hormone binding activity", "format": "biochemical", "excerpt": "To identify novel small molecule inhibitors of molecular chaperones, a high-throughput functional screen was developed based on the isoform A of progesterone receptor (PRA), a well-established physiological client of Hsp90, and using rabbit reticulocyte lysate (RRL) as a source of molecular chaperones. This comprehensive functional assay measured the recovery of hormone binding activity of PRA after mild heat treatment. Purified PR was adsorbed onto PR22 antibody bound to protein A that was absorbed on 96 well plates. 100 μl of RRL lysate and ATP regeneration system was added to each well. After incubation for 30 min at 30° C., 0.1 μM [^3H]-progesterone (American Radiolabeled Chemicals, Inc #ART 0063) was added. Plates were incubated on ice for 2 h at 4° C. Complexes were then washed three times with 200 μl of reaction buffer (20 mM Tris/HCl, pH 7.5, 5 mM MgCl2, 2 mM DTT, 0.01% NP-40, 50 mM KCl and 5 mM ATP) and assessed for bound progesterone by liquid scintillation using PerkinElmer Microbeta plate reader.\nBeauvericin was added to the PR reconstitution assay as in example 1, and hormone binding activity was measured."}, "[8]": {"tested_on": "Hsp70, Hsp27, Hsp40 and HOP in Hs578T and MDA-MB-453 cells", "assay": "Western blot of markers for heat shock response", "format": "cell-based", "settings": "3 μM, 48 h, FIG. 7", "procedure": "as §1, §2"}, "[9]": {"tested_on": "Hs578T breast cancer cells", "assay": "Cytotoxicity assay, Hs578T", "format": "cell-based", "settings": "0-10 μM, 24, 48, 72 h, FIG. 6A"}, "[10]": {"tested_on": "Hsp90, Hsp70, Hsp40, HOP and p23", "assay": "PR reconstitution assay using the five purified chaperones", "format": "biochemical", "settings": "FIG. 4", "procedure": "as §3, with “Chem” for “Chem,”, “1.4 μM Hsp70, 0.8 μM Hsp90β, 0.2 μM Hsp40 (Ydj), 0.08 μM HOP and 2.6 μM p23 in reaction buffer (20 mM Tris/HCl, pH 7.5, 5 mM MgCl2, 2 mM DTT, 0.01% NP-40, 50 mM KCl and 5 mM ATP).” for “100 μl of RRL.”, “ml of” for “ml”, “buffer” for “buffer (20 mM Tris/HCl, pH 7.5, 5 mM MgCl2, 2 mM DTT, 0.01% NP-40, 50 mM KCl and 5 mM ATP)”, “reader” for “reader,”"}}, "data": [{"smiles": "CC(C)[C@@H]1OC(=O)[C@@H](Cc2ccccc2)N(C)C(=O)[C@H](C(C)C)OC(=O)[C@@H](Cc2ccccc2)N(C)C(=O)[C@H](C(C)C)OC(=O)[C@@H](Cc2ccccc2)N(C)C1=O", "note": "[beauvericin]", "values": [{"measurement": "AKT destabilization", "setting": "[1]", "value": "destabilized"}, {"measurement": "Her2 destabilization", "setting": "[1]", "value": "reverse profile"}, {"measurement": "cellular degradation of Hsp90 clients (AKT, pAKT, CDK4, ILK, Her2, Her3, GR)", "setting": "[1]; FIG. 7A", "value": "caused cellular degradation"}, {"measurement": "solubility in acetonitrile", "setting": "[2]", "value": 1000, "unit": "µg/mL"}, {"measurement": "solubility in methanol", "setting": "[2]", "value": 1000, "unit": "µg/mL"}, {"measurement": "in vitro cytotoxicity (relative survival)", "setting": "[3]", "value": "potent in vitro cytotoxicity"}, {"measurement": "AKT destabilization", "setting": "[4]", "value": "not"}, {"measurement": "Her2 destabilization", "setting": "[4]", "value": "reverse profile"}, {"measurement": "cellular degradation of Hsp90 clients (AKT, pAKT, CDK4, ILK, Her2, Her3, GR)", "setting": "[4]; FIG. 7B", "value": "caused cellular degradation"}, {"measurement": "PRB stability by Western blot", "setting": "[5]; HeLa-PRB cells", "value": "not destabilized"}, {"measurement": "PRB recognition by the monoclonal antibody PR6 in immunocytochemistry", "setting": "[5]; HeLa-PRB, 3 μM, 24 h", "value": "reproducibly blocked"}, {"measurement": "glucocorticoid receptor (GR) localization", "setting": "[5]; HeLa-PRB, 3 μM, 24 h", "value": "lock it in the nucleus"}, {"measurement": "level of Hsp90 in PRA complexes", "setting": "[6]", "value": "decreased"}, {"measurement": "recruitment of Exportin-7 into PRA complexes", "setting": "[6]; mass spectrometry", "value": "caused the recruitment of a novel protein into these complexes"}, {"measurement": "inhibition of reconstitution of PRA in RRL (hormone binding activity)", "setting": "[7]; FIG. 1, compared with 17-AAG", "value": "comparable efficacy to the classical Hsp90 inhibitor 17-AAG"}, {"measurement": "inhibition of the ability of the Hsp90 chaperone to refold PRA", "setting": "[7]; FIG. 2, 0, 1, 5, 10, 20, 40 μM", "value": "concentration-dependent manner"}, {"measurement": "Hsp40 expression", "setting": "[8]", "value": "down-regulates"}, {"measurement": "overexpression of HOP", "setting": "[8]", "value": "does not induce overexpression"}, {"measurement": "overexpression of Hsp27", "setting": "[8]; in contrast to 17-AAG", "value": "does not induce overexpression"}, {"measurement": "overexpression of Hsp70", "setting": "[8]; in contrast to 17-AAG", "value": "does not induce overexpression"}, {"measurement": "in vitro cytotoxicity (relative survival)", "setting": "[9]", "value": "potent in vitro cytotoxicity"}, {"measurement": "inhibitory activity on five-protein system (PRA reconstitution)", "setting": "[10]", "value": "no inhibitory activity"}]}]}
